Laboratory results: EP1021088B1, “FUNGICIDE MIXTURES BASED ON FLUQUINCONAZOLE” (Aventis CropScience UK Limited, priority 1997, dated 1999)

What was measured:
[1] = tested on: Erysiphe graminis (powdery mildew); experiment: Control of powdery mildew on wheat plants, spraying two days after inoculation; assay type: in vivo; details: sprayed two days after inoculation, assessed one week after inoculation
Protocol: (§1) Wheat plants were inoculated with Erysiphe graminis (powdery mildew). Two days after inoculation, they were sprayed with fluquinconazole, obtained by diluting with water to the desired concentration, a suspension concentrate comprising 10% by weight active ingredient, or azoxystrobin obtained by diluting with water to the desired concentration, the commercial product sold under the trade name "Amistar", or mixtures of these. One week after inoculation, the wheat was assessed for control of disease. To indicate the existence of synergism between the active components the results were treated in the manner described by Colby S.R., "Calculating Synergistic and Antagonistic Responses of Herbicide Combinations" in Weeds 1967 15, 20-22). In this method the "expected" percent control of growth, E, of the combination compared with untreated control is given by the equation E = A + F -(AF)/(100) [formula] where A is the % control by azoxystrobin used alone at a given concentration and F is the % control by fluquinconazole, used alone at a given concentration. […] In the table, component "az" is azoxystrobin and "fq" is fluquinconazole.

[2] = tested on: Erysiphe graminis (powdery mildew); experiment: Control of powdery mildew on wheat plants, spraying one day after inoculation; assay type: in vivo; details: sprayed one day after inoculation
Protocol: as §1, with “fluquinconazole. Table 1 In a similar manner, Example 1 was repeated with spraying one day after inoculation. The results are as follows Table 2” for “fluquinconazole.”

| Compound | % Control Observed ([1]; az 31.25 g cpd/ha) [%] | % Control Observed ([1]; az 62.5 g cpd/ha) [%] | % Control Observed ([1]; az 125 g cpd/ha) [%] | % Control Observed ([1]; az 187.5 g cpd/ha) [%] | % Control Observed ([2]; az 31.25 g cpd/ha) [%] | % Control Observed ([2]; az 62.5 g cpd/ha) [%] | % Control Observed ([1]; fq 15.25 g cpd/ha) [%] | % Control Observed ([1]; fq 31.25 g cpd/ha) [%] | % Control Observed ([2]; fq 15.25 g cpd/ha) [%] | % Control Observed ([2]; fq 31.25 g cpd/ha) [%] |
| --- | --- | --- | --- | --- | --- | --- | --- | --- | --- | --- |
| CO/C=C(/C(=O)OC)c1ccccc1Oc1cc(Oc2ccccc2C#N)ncn1 [az, methyl (E)-2-{2-[6-(2-cyanophenoxy)pyrimidin-4-yloxy]phenyl}-3-methoxyacrylate] | 10 | 12 | 42 | 62 | 0 | 0 | – | – | – | – |
| O=c1c2cc(F)ccc2nc(-n2cncn2)n1-c1ccc(Cl)cc1Cl [fq, 3-(2,4-dichlorophenyl)-6-fluoro-2-((1H)-1,2,4-triazol-1-yl)-4(3H)-quinazolinone] | – | – | – | – | – | – | 24 | 70 | 12 | 68 |
